Results on one molecule are retold here after PMC8199331, “Baicalein Ameliorates Streptococcus suis-Induced Infection In Vitro and In Vivo” (International Journal of Molecular Sciences, 2021).

SMILES strings stand for the structures.

By Kd is commonly meant the free concentration of one partner at which half of the binding sites on the other are occupied at equilibrium, for simple one-to-one binding.

The target in this assay is SLY (suilysin) (Streptococcus suis, UniProt Q55996). Briefly: biochemical.
Sequence of SLY (suilysin) (Q55996 28-497 limits assumed): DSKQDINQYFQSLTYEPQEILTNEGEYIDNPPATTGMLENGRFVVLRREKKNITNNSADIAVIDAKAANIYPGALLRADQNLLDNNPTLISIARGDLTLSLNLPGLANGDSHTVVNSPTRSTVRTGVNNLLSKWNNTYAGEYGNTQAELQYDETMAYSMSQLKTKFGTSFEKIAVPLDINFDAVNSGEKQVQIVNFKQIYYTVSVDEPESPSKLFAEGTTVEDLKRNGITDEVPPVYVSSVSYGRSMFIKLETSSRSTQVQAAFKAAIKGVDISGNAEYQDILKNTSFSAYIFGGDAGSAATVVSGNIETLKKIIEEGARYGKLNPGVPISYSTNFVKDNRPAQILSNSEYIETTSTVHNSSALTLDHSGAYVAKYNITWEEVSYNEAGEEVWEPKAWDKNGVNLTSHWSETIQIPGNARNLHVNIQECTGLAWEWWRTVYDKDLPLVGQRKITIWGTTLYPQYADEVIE

Molecule `O=c1cc(-c2ccccc2)oc2cc(O)c(O)c(O)c12` [Baicalein] returned a dissociation constant (Kd) of 865 nM.
